Reference: patent US10233498B2, “Therapeutic agent for emphysema and COPD” (TRUSTEES OF BOSTON UNIVERSITY, priority 2011, dated 2019)
“Also recorded” adds a separate entry of the source.

What was measured:
[1] = system: human lung fibroblasts (HFL-1); experiment: Gene expression profiling (microarray, GSEA) of treated HFL-1 fibroblast cultures; format: cell-based
Experimental: GSEA was used to explore connections to other datasets. Genes in this dataset were ranked by the t-statistic of the Lm term in the linear model represented by equation (2) shown above. […] For those datasets where raw data was available, the Entrez gene chip definition file (CDF) was used to obtain RMA normalized expression values. Genes from these datasets were ranked by t-statistic. For dichotomous variables, the t-statistic was calculated from a comparison of expression levels observed in the two groups (e.g. cases and controls). For continuous variables, the t-statistic was from a linear model of expression as a function of the continuous variable (e.g. FEV1). Datasets that measured the effect of TGFβ ligands on gene expression in various cell types included Chambers et al., (The American journal of pathology 2003162:533-46) Verrecchia et al., (The Journal of biological chemistry 2001 276:17058-62), GSE749712, GSE545010, GSE665314, GSE1171013, and GSE172415. Lists of genes that change with TGFβ exposure were taken from the publication associated with the microarray data. If lists of at least 25 genes could not be obtained from the literature, the raw data was used from GEO and normalized as described above. The 200 genes with the highest fold change and the 200 genes with the lowest fold change were used as gene sets and compared to a list of all genes from this dataset ranked by their correlation to Lm.
(§1) Normal human diploid lung fibroblasts (HFL-1) were obtained from the American Type Culture Collection (Manassas, Va.) and used between 3-5 consequent passages after thawing of frozen cells. HFL-1 cells were placed in 6-well culture plates (BD Biosciences, Mississauga, ON) at a density of 1×10^5 cells per well in complete cell culture medium (CCM, DMEM supplemented with 10% FBS, 2 mM L-glutamine and 1% of antibiotic solution; Invitrogen, Burlington, ON). Cells were cultured at 37° C. and 5% CO2 in CCM before they reached 80% confluence. Cells were quiesced in CCM with 1% FBS overnight. […] Cells exposed to the CCM with added DMSO served as a vehicle control. Experiments were repeated 3 times using HFL-1 cells during 3 consequent cell culture passages. Total RNA was isolated from HFL-1 monolayers using RNeasy Plus Mini-Kit (Qiagen, Valencia, Calif.) as per manufacturer's instructions. Quantity and quality of the isolated RNA was determined using Agilent 2100 Bioanalyzer (Agilent Technologies, Mississauga, ON). Isolated RNA was processed and hybridized onto the Human Gene 1.0 ST array (Affymetrix Inc., Santa Clara, Calif.) according to the manufacturer's protocol. Transcript-level gene expression estimates were generated using RMA with the Entrez gene CDF version v11. […] Gene expression profiles were ranked for each treatment by t-statistic.

β1-integrin = experiment: Immunoblotting for β1-integrin in HFL-1 cells; format: cell-based, human; conditions: HFL-1, 48 hrs, FIG. 8A
Experimental: as §1
Production of β1-integrin by HFL-1 cells was assessed by immunoblotting as previously described (Pechkovsky, D. V. et al. The Journal of biological chemistry 2008 283:12898-908). Briefly, total cell protein was extracted from cultured HFL-1 using Cell Protein Extraction Buffer (Biosource, Camarillo, Calif.), quantified by DC Protein Assay (Bio-Rad, Hercules, Calif.), resolved by SDS-PAGE, and transferred to nitrocellulose membranes. Membranes were probed with mouse anti-human β1-integrin antibody (clone 419127, R&D Systems, Minneapolis, Minn.) and anti-β-tubulin antibody (Millipore, Billerica, Mass.) as a loading control. […] Density of the bands was quantified using Odyssey software 2.1 (LI-COR Biosciences). […]

Row | Substance | GSEA: genes most induced by treatment among genes that decrease in expression with increasing regional emphysema severity ([1]; TGFβ1 10 ng/ml, human lung fibroblasts, FDR<0.05, FIG. 7A) | β1-integrin (ITGB1) protein levels vs vehicle (DMSO) treated controls (β1-integrin; TGFβ 10 ng/mL, p<0.05) | β1-integrin (ITGB1) protein levels vs vehicle (DMSO) treated controls (β1-integrin; TGFβ 10 ng/mL, p<0.05, listed as TGFβ) | GSEA: genes that increase after treatment among genes whose expression decreases with increasing emphysema ([1]; GHK 0.1 nM or 10 nM (either concentration), HFL-1, FIG. 7A) | GSEA: 200 genes most induced by GHK at 1 μM in CMap cancer cell lines among genes that increase with treatment in HFL-1 ([1]; GHK 0.1 nM, 48 hrs, HFL-1, FIG. 7B) | ITGB1 expression profile ([1]; GHK 0.1 nM, HFL-1, p=0.004) | GSEA: genes whose expression is decreased with increasing emphysema severity among genes induced by treatment ([1]; GHK 10 nM, 48 hrs, HFL-1, FIG. 7C) | GSEA: genes whose expression is altered by GHK treatment among genes that change with TGFβ1 treatment ([1]; GHK at either concentration (0.1 nM, 10 nM), HFL-1, FIGS. 7B-7D) | β1-integrin (ITGB1) protein levels vs vehicle (DMSO) treated controls (β1-integrin; GHK 0.1 or 10 nM, p<0.01)
1 | TGFβ1: recombinant human TGFβ1 (10 ng/ml, PeproTech) | enriched | significantly induced | increase | – | – | – | – | – | –
2 | Glycine-Histidine-Lysine [GHK] | – | – | – | enriched | enriched | significantly upregulated | enriched | enriched | significantly induced; also recorded: increase
